In ChEMBL document CHEMBL1201862, “PubChem BioAssay data set” (2004):
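96-well plates; 48 h exposure; 5 concentrations. Endpoints by linear interpolation between flanking doses. Not reached: highest tested concentration assigned. At the GI50, growth is halved.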 The source made the active and inactive calls. Cut-off read from the data, not from the text of the source: active = GI50 up to about 1.1 µM and inactive = higher.

Assays:
Experiment in all cases: DTP human tumour cell line panel, 48 h
SK-MEL-5 = test system: SK-MEL-5
TK-10 = test system: TK-10
SNB-19 = test system: SNB-19
HOP-62 = test system: HOP-62
HL-60 = test system: HL-60
Malme-3M = test system: Malme-3M
SK-MEL-2 = test system: SK-MEL-2
SR = test system: SR
A498 = test system: A498
SN12C = test system: SN12C
SK-MEL-28 = test system: SK-MEL-28
SF-268 = test system: SF-268
SNB-78 = test system: SNB-78
CAKI-1 = test system: CAKI-1
IGROV-1 = test system: IGROV-1
A549 = test system: A549
CCRF-CEM = test system: CCRF-CEM

Measured: GI50

C=CCNC(=S)N1CC(C)C(=O)Nc2cc(Cl)ccc21 (stereo unspecified)
inactive: SK-MEL-5 > 100 µM | TK-10 > 100 µM | SNB-19 > 100 µM | HOP-62 > 100 µM | HL-60 > 100 µM | Malme-3M 82 µM | SK-MEL-2 > 100 µM | SR > 100 µM | A498 > 100 µM | SN12C > 100 µM | SK-MEL-28 > 100 µM | SF-268 > 100 µM | SNB-78 > 100 µM | CAKI-1 > 100 µM | IGROV-1 > 100 µM | A549 > 100 µM

CC(=O)Nc1ccc(C(=O)NN2C(=O)C(Cl)C2c2ccc(O)cc2)cc1 (stereo unspecified)
inactive: SK-MEL-5 > 100 µM | TK-10 > 100 µM | SNB-19 > 100 µM | HOP-62 57.9 µM | HL-60 > 100 µM | Malme-3M > 100 µM | SK-MEL-2 > 100 µM | CCRF-CEM > 100 µM | A498 > 100 µM | SN12C > 100 µM | SK-MEL-28 > 100 µM | SF-268 64.1 µM | SNB-78 > 100 µM | CAKI-1 > 100 µM | IGROV-1 > 100 µM | A549 > 100 µM

COc1cc(Br)c(CC2(C#N)c3ccccc3C3C(N2C(=O)c2ccccc2)C3(Cl)Cl)cc1OC (stereo unspecified)
inactive: SK-MEL-5 2.94 µM | TK-10 > 65.5 µM | SNB-19 > 65.5 µM | HL-60 1.51 µM | Malme-3M > 65.5 µM | SK-MEL-2 > 65.5 µM | SR 4.01 µM | CCRF-CEM > 65.5 µM | SN12C > 65.5 µM | SK-MEL-28 > 65.5 µM | SF-268 > 65.5 µM | SNB-78 > 65.5 µM | IGROV-1 > 65.5 µM | A549 > 65.5 µM

OCCCCOC(c1ccccc1)(c1ccccc1)c1ccccc1
inactive: SK-MEL-5 > 100 µM | TK-10 > 100 µM | HOP-62 > 100 µM | HL-60 > 100 µM | Malme-3M > 100 µM | SR > 100 µM | CCRF-CEM > 100 µM | SN12C > 100 µM | SK-MEL-28 > 100 µM | SF-268 > 100 µM | SNB-78 > 100 µM | CAKI-1 > 100 µM | IGROV-1 > 100 µM | A549 > 100 µM

CC(C(=O)c1ccccc1)C1(O)C(=O)Nc2ccccc21 (stereo unspecified)
inactive: SK-MEL-5 > 100 µM | TK-10 > 100 µM | SNB-19 > 100 µM | HOP-62 > 100 µM | Malme-3M > 100 µM | SK-MEL-2 > 100 µM | SR > 100 µM | CCRF-CEM > 100 µM | A498 > 100 µM | SN12C > 100 µM | SK-MEL-28 > 100 µM | SF-268 > 100 µM | SNB-78 > 100 µM | CAKI-1 > 100 µM | IGROV-1 > 100 µM | A549 > 100 µM

CCCCN(CCCC)/C(=N\C#N)NCc1ccccc1
inactive: SK-MEL-5 21.9 µM | TK-10 25.1 µM | SNB-19 19.6 µM | HOP-62 28.4 µM | HL-60 10.5 µM | Malme-3M 32.4 µM | SK-MEL-2 21.7 µM | CCRF-CEM 12.1 µM | A498 18.1 µM | SN12C 18.8 µM | SF-268 29.4 µM | SNB-78 26.5 µM | CAKI-1 22.5 µM | IGROV-1 24.8 µM | A549 25.8 µM

Cc1cc(NS(=O)(=O)c2ccc(NC(=O)c3ccc(Cl)c4c(Nc5ccc(S(N)(=O)=O)cc5)c5ccccc5nc34)cc2)no1
inactive: SK-MEL-5 18.2 µM | TK-10 27 µM | SNB-19 14.7 µM | HOP-62 21.2 µM | HL-60 13.3 µM | Malme-3M 15.5 µM | SR 20.4 µM | A498 23.3 µM | SN12C 23.1 µM | SK-MEL-28 20.3 µM | SF-268 12.9 µM | SNB-78 36.8 µM | CAKI-1 21.1 µM | IGROV-1 21.2 µM | A549 66.5 µM
